Results published in patent US20090042783A1, “APO E ANALOGS AND METHODS FOR THEIR USE” (priority 2004, published 2009).
Like-named read-outs stand apart in the source and are kept apart here. No end group written: not given here.

Columns and labels:
[1] = tested on: mice receiving total body irradiation; conditions: cited from earlier work
BV2 microglial cells = tested on: BV2 microglial cells
Experimental: For suppression of inflammation profiling, each peptide analog was tested at a final concentration of 0.1, […], 1, 3, 5, 10 and 25 μM in an LPS induced BV2 microglial cell release of NO and/or TNFα. […] The modification was a biotin label on the apoE peptide (biotin-[…]-amide) which allows detection with ^125I-streptavidin (ISA, Amersham).
In overview, BV-2 cells are plated in 96 well plates in complete media and then the media is replaced the next day with serum free media or reduced serum (1%) media. […] Each concentration of peptide (standard initial concentrations are 0.1, 0.5, 1, 3, 10 and 25 μM) is added to at least 6 wells of cells (e.g. 6 wells get 0.1 μM peptide, 6 wells get 0.5 μM peptide, etc.) and data are averaged from all 6 wells. […] (2001). Cell viability is also measured with an MTT assay (Laskowitz et al. 2001).

peritoneal macrophages = test: Peritoneal macrophage production of NO, TNFα and IL-6 induced by MOG or LPS/IFN-γ; assay type: cell-based, mouse
Experimental: For this purpose, three mice with clinical scores of 0 and three with clinical scores of 4 at 30 dpi (day post-immunization) were used for preparation of peritoneal macrophage cultures. Macrophages were collected after peritoneal lavage with 3 ml heparin (10 U/ml)-containing PBS and then seeded to 96-well microplates at a density of 1×10^5 cells/well in Dulbecco's MEM containing 10% fetal bovine serum, 2 mM L-glutamine serum, 1% HEPES and 100 U/ml penicillin and 100 μg/ml streptomycin, 37° C. in a humidified incubator with 5% CO2. 24 h later, the serum-containing medium was removed and cells were washed once with serum-free medium. To examine the differentiated response of macrophage to immune stimulators, macrophages obtained from mice with clinical scores of 0 or 4 were exposed to serial concentrations of IFN-γ/LPS or MOG35-55 peptide. […] Media were collected at 45 h or 72 h, and analyzed by ELISA for […] and IL-6 or for nitric oxide (NO) as detailed below.
As the stable end product of nitric oxide release, nitrite levels in conditioned media were determined by injecting 50 μl media sample into a Sievers 280 NOA analyzer (Boulder, Colo., USA). Total protein (μg/well) was measured using the BCA method (Pierce, Rockford, Ill., USA) according to manufacturer's instructions with BSA as standard. BCA values were measured using a Molecular Devices Thermomax Microplate Reader (Menlo Park, Calif., USA) at OD562. Nitric oxide levels ere expressed as μM NO2—/mg protein.
For cytokine assays, supernatants were collected 45 h after […]/LPS or MOG treatments and quantitative ELISAs using selected pairs of monoclonal antibodies (as recommended by the manufacturer Biosource) were performed to quantify the cytokines, TNF-α and IL-6. For TNF-α ELISA, 96-well ELISA plates were pre-coated with rabbit anti-mouse polyclonal to TNF-α as capture antibodies for 18 h at 2-8° C. and then blocked for 2 h at room temperature. The wells were incubated with samples or mouse TNF-α standards. Following incubation for 2 h at room temperature, the wells were washed, after which hamster anti-mouse TNF-α biotinylated secondary antibody and horseradish peroxidase conjugate were added. Tetramethylbenzidine (TMB) solution was then added, and peroxidase-catalyzed color change was stopped by acidification with 2 NH2SO4. The plates were scanned at wavelength 450 nm and the absorbance were measured. The results are expressed as the mean concentration (pg/ml) ±SEM.
For IL-6 ELISA, rat anti-mouse monoclonal to IL-6 was used as capture antibody, and biotinylated rat anti-mouse monoclonal to IL-6 as detection antibody. The rest of procedure is identical to that of TNF-α ELISA.

[2] = tested on: BV2 murine microglial cells
Experimental: For Applicants preliminary work, the two most common PTDs, TAT and penetratin, were used.
Cell Culture: BV-2, a well-characterized murine microglial cell line (Bochinni, 1992), is cultured in high glucose content DMEM supplemented with 1% penicillin/streptomycin, 10% fetal calf serum, 1% nonessential amino acids, and 1% sodium pyruvate. Cells are grown to confluency; trypsinized; spun down; resuspended in serum-free OptiMEM containing 1% N2 supplement, 1% penicillin/streptomycin, 1% nonessential amino acids, and 1% sodium pyruvate; and plated at a concentration of 20,000 cells/well to remove any nonadherent cells and serum.
Supernatant is collected 24 and/or 48 h after LPS stimulation and assayed for nitrite.
Quantification of Nitric Oxide (NO): Accumulation of nitrite (stable end product of NO production) in the medium is measured by colometric Griess reagent system (Promega); the absorbance is determined at 540 nm.
Cell Viability Assay: Cell viability is measured using a nonradioactive cell viability assay (cell titer 96 AQ, Promega). The assay measures the bioreduction of MTS (3-(4,5-dimethylthiazole-2-)-5-(3-carboxymethoxyphenyl)-2-(4-sulfophenyl)-2H-tetrazolium by viable cells into formazan. The absorbance of the calorimetric assay is measured at λ 490 nm. Viability is assessed and used to normalize the nitrite data.

RAW 264.7 macrophages [3] = test: NO production and iNOS mRNA in C. rodentium-stimulated macrophages; assay type: cell-based, mouse
From the text: RAW 264.7 cells were stimulated with French-pressed lysates of C. rodentium at a multiplicity of infection of 100. […] B, RT-PCR for iNOS.
We used bacterial lysates to more closely mimic the bacterial products to which lamina propria macrophages are likely to be exposed.

RAW 264.7 macrophages [4] = tested on: RAW 264.7 macrophages
[5] = tested on: mice with traumatic brain injury; test: Closed head injury model of traumatic brain injury (rotorod, Morris Water Maze)
Experimental: C57Bl/6J male mice (The Jackson Laboratory, ME), 12-16 weeks of age and weighing 24-32 g, are used for all experiments. Anesthesia is first induced with isoflurane in 30% O2/balance N2. The trachea is intubated and the lungs mechanically ventilated with 1.6% isoflurane in 30% O2/balance N2. Temperature is monitored with a rectal probe and maintained at 36.5° C. with a heat lamp. The right internal jugular vein is cannulated with silicone catheter. […] Intubated animals are then placed prone on a molded acrylic cast (FIG. 6A). […] The scalp is incised and the skull exposed. A concave 3 mm metallic disc is secured to the skull surface (with the concave surface in juxtaposition to the skull) by an adhesive. […] The disc is placed directly midline just caudal to bregma (FIG. 6B). […] The mice are positioned in a stereotactic frame. Although the stereotactactic frame helps to stabilize the animal and exactly calibrate the vertical displacement on impact (3 mm), ear bars are not used due to a much higher rate of skull fracture (or brainstem injury if the head rotates around the axis of the ear bars during impact). The piston is discharged at 6.8±0.2 m/s so as to impact the skull in the acrylic mold to move a maximum of approximately 3 mm (FIG. 6C). Inspired isoflurane is decreased to 0.7% immediately after impact. The scalp was infiltrated with lidocaine and closed with suture. Ophthalmic ointment was applied to the eyes for protection. The incidence of skull fracture is low (approximately 10%), as the metal disk helps to diffuse the impact, and the absence of ear bar fixation allows for displacement of the entire head. Mice were excluded if a depressed skull fracture was observed (incidence of approximately 10%). The animals are allowed to recover spontaneous ventilation then extubated. […] In these mice, arterial blood pressure, blood gas and glucose measurement at baseline, immediately after injury, and 15 minutes after injury are monitored during the recovery period.
Briefly, baseline performance on rotorod is established before the mice are intubated, the skin over the scalp reflected and a controlled cortical impact from a pneumatic impactor given on the midline. The skin is closed with surgical clips and the animals are constantly monitored until awake from anesthesia and then hourly for the next 4 hours. […] Performance on rotorod is tested at 24 hours post impaction and then every day for 5 days and data is presented as described. Groups of 12 mice are used for each compound at 0.5×MTD. […] Novel peptides and non-peptide analogs are also given by tail vein injection.
Daily Rotarod (RR) testing was used to assess short term motor and cerebellar deficit following head injury (Hamm et al., 1994). Mice were held by their tails and placed on the RR facing the wall by using gentle swinging motion while running in a constant speed mode.

mice = test: Maximum tolerated dose, tail vein injection; conditions: mouse, in vivo
Experimental: Candidate compounds are then be screened in our closed head injury model of traumatic brain injury by intravenous dosing at 30 minutes post injury. Novel compounds are initially tested at one half their maximum tolerated dose (0.5×MTD). The maximum tolerated dose (MTD) is the dose of peptide given in a tail vein injection that results in no death of mice. Death is defined as a complete lack of breathing and complete unresponsiveness to external stimuli such as tail pinch and/or toe pinch for a period of 10 or more minutes. Animals are given an initial dose of 1 mg/kg of peptide analog or non-peptide mimetic and observed continuously for 15 minutes and then at 15 minute intervals for 2 hours and then at 1 hour intervals for 4 hours more. Animals are also observed at 24 hours post injection.
The maximum tolerated dose is the maximum dose at which no animals die at any of these observation times. As an example of this procedure, the MTD is determined empirically by initially dosing groups of 3 mice at 1 mg/kg. If this dose is tolerated, then another group of 3 mice is dosed at 3 mg/kg. If this dose is tolerated, then another group of 3 mice is dosed at 9 mg/kg, etc. If, for example, 9 mg/kg is not tolerated because 1 or more animal died, then doses in-between 3 mg/kg and 9 mg/kg are investigated until the MTD is found. Once the MTD is empirically determined, it is confirmed in another group of 7 mice for a total of 10 mice being tested at the MTD and all of which must not die to confirm that this is the MTD.

[6] = tested on: C57BL/6J mice with MOG-induced EAE; test: MOG-induced experimental autoimmune encephalomyelitis (EAE); conditions: preliminary data
Experimental: EAE was induced in mice following the method of Feinstein et al. (Feinstein, Galea, et al. 2002) 1) two s.c. injections, one on each flank of the hind legs with 300 μg MOG35-55 peptide in 0.1 ml PBS emulsified in an equal volume of CFA containing 5 mg/ml of Mycobacterium tuberculosis H37RA (Difco, St. Louis, Mo.) were given on Day 0.2) Pertussis toxin (200 ng per mouse in 0.1 ml PBS) was given i.p. immediately and 48 h after first MOG injection. 3) a booster immunization with an identical emulsion, route of administration and location was given on Day 7.
Following the encephalitogenic challenge, mice were monitored daily and neurological impairment was evaluated by clinical score (C.S.) as follows: 0, no clinical signs of EAE; 1, limp tail; 2, flaccid tail and abnormal gait (ataxia and/or paresis of hind limbs); 3, severe hind limb paresis; 4, complete paralysis with hind body; and 5, moribund or death.
Mice were anesthetized, bled, and perfused with 25 ml PBS and 25 ml 4% paraformaldehyde in buffered PBS. Brains and spinal cords were dissected out from 3 mice with a clinical score of 0 and another 3 mice with a clinical score of 4 on day 30 post-immunization. Tissues were post-fixed in 4% paraformaldehyde for another 24 h and then stored in 1×PBS with 0.1% sodium azide. Fixed tissues were embedded in paraffin and 5 μm thick sections were cut from brain, the brain stem and three different levels of spinal cord (cervical, thoracic and lumbar). Sections were stained with hematoxylin/eosin for evidence of inflammation and Luxol fast blue (for demyelination). The severity of inflammation was evaluated using the following criteria: 0, no inflammation; 1, cellular infiltrates only in the perivascular areas and meninges; 2, mild cellular infiltrates only in parenchyma (1-10/section); 3, moderate cellular infiltrates in parenchyma (11-100/section); 4, marked cellular infiltrates in parenchyma (>100 section).
In total, 10 doses of peptides were given.

in vivo = conditions: male, C57B1/6, mouse, 0.4 mg/kg
[7] = target: cellular receptor bound by the apoE 133-149 peptide (on cells, 250,000 cells per well); test: competition with biotinylated apoE 133-149 for binding to whole cells (250,000 cells/well, 4 C), 125I-streptavidin detection

NCCCNCCSP(=O)(O)O [amifostene, reference compound]
Dose reduction factor ([1]; 30 days post-irradiation, given immediately before irradiation (Hall 2000)): 2.7

Ac-RQIKIWFQNRRMKWKKLRVRLASHLRKLRKRLL-NH2 (N-terminus and C-terminus assumed) [COG4502]
Suppression of NO and/or TNFα release from LPS treated BV2 cells (BV2 microglial cells): much better than the COG133 parent | IC50 (BV2 microglial cells; 40 h): ~10 nM | Inhibition of cytokine production induced by MOG or LPS/IFN-γ (peritoneal macrophages): significantly more powerful in inhibiting cytokine production | Production of NO, TNFα and IL-6 at 5 μM (peritoneal macrophages; 5 μM, MOG or LPS/IFN-γ): inhibited the production of NO, TNFα and IL-6 completely | TNFa and IL6 release from peritoneal macrophages (peritoneal macrophages; gamma interferon and LPS, 24 hours): dose dependent inhibition of TNFa release and a dose dependent inhibition of IL6 release | IC50 [2]: 700 nM | Increase in potency relative to COG133 [2]: 40 fold | Suppression of LPS-stimulated nitrite secretion [2]: significantly more potent than COG133 | Suppression of NO production at 25 μM ([2]; 25 μM): 100% | Increase of efficacy of COG133 when conjugated to penetratin ([2]; FIG. 18 vs FIG. 16): about 100 fold | IC50 ([2]; read-out: Dose for fifty percent suppression of LPS-stimulated nitrite secretion, FIG. 18): ~30 nM | IC50 ([2]; read-out: IC50 TNFα, in vitro): 1100 nM | NO production (nitrite levels) in macrophage supernatants (RAW 264.7 macrophages [3]; C. rodentium lysates, COG1410 2 μM, COG4502 0.1-5 μM): inhibition of NO production | iNOS mRNA expression (RAW 264.7 macrophages [3]; RT-PCR): significant, concentration-dependent inhibition of iNOS mRNA expression | Concentration at which cell toxicity was noted (RAW 264.7 macrophages [4]): 10 µM | Concentration range where toxicity did not occur (RAW 264.7 macrophages [4]): 0.1 to 5 µM | Rotorod performance, conjugates given at varying times following TBI ([5]; FIG. 20: 90 minutes following TBI): can increase the therapeutic window of COG133 | In vivo Therapeutic window time expanded? ([5]; mouse, in vivo): Yes; tested at 4 X

CC(=O)N[C@@H](CC(C)C)C(=O)N[C@@H](CCCNC(=N)N)C(=O)N[C@H](C(=O)N[C@@H](CCCNC(=N)N)C(=O)N[C@@H](CC(C)C)C(=O)N[C@@H](C)C(=O)N[C@@H](CO)C(=O)N[C@@H](Cc1c[nH]cn1)C(=O)N[C@@H](CC(C)C)C(=O)N[C@@H](CCCNC(=N)N)C(=O)N[C@@H](CCCCN)C(=O)N[C@@H](CC(C)C)C(=O)N[C@@H](CCCNC(=N)N)C(=O)N[C@@H](CCCCN)C(=O)N[C@@H](CCCNC(=N)N)C(=O)N[C@@H](CC(C)C)C(=O)N[C@@H](CC(C)C)C(N)=O)C(C)C [COG133]
EC50 (BV2 microglial cells; read-out: EC50 (50% reduction of NO or TNFα release), LPS induced BV2 cells): 3500 nM | IC50 (BV2 microglial cells; read-out: IC50, inhibition of nitric oxide release, BV2 cells, LPS for 40 hours, approximate): ~2000 nM | Therapeutic Index (ratio of the MTD to the MED) (mice): 3.5 | Tolerability in mice with EAE [6]: well tolerated | IC50 ([2]; read-out: IC50 NO, 50% suppression of NO production, normalized on cell viability): 25000 nM | half-life (in vivo): 8 min

LRVRLASHLRKLRKRLL (not fully specified) [apoE 133-149 peptide (COG133), unlabeled]
IC50 [7]: 4000 nM

B1: rIL11: rIL11 given to irradiated mice (Van der Meeren et al. 2002) (protein, UniProt P20809 22-199, looked up)
Interleukin-11: PGPPPGPPRVSPDPRAELDSTVLLTRSLLADTRQLAAQLRDKFPADGDHNLDSLPTLAMSAGALGALQLPGVLTRLRADLLSYLRHVQWLRRAGGSSLKTLEPELGTLQARLDRLLRRLQLLMSRLALPQPPPDPPAPPLAPPSSAWGGIRAAHAILGGLHLTLDWAVRGLLLLKTRL
Survival rate at 30 days post-TBI ([1]; 8 Gy, 2 hour delay, every day for 5 days (Van der Meeren et al. 2002)): 74%
